Where two headings read alike, the source gives them in different places.
Columns and labels:
[1] = target: T1, calf thymus topoisomerase II (Bos taurus, UniProt F1MDU7); experiment: Topo II-mediated DNA cleavage assay; assay type: biochemical; conditions: concentration relative to VM26 (= 1) producing the same cleavage on plasmid DNA in the presence of calf thymus topoisomerase II
T1 construct: from tissue; host or cells: calf thymus glands
Excerpt: The plasmid pET11a and the E. coli strain BL21(DE3) used for enzyme expression were purchased from Novagen. IPTG was purchased from Sigma. The ECL system used for the Western blotting analysis of bacterial lysates was from Amersham (UK). All the restriction enzymes and Vent polymerase were from New England Biolabs. Mammalian topoisomerase II was isolated from calf thymus glands according to the published procedure (Halligan et al., J. Biol. Chem. 260:2475-2482 (1985)). The single copy yeast plasmids YCpGAL1 expressing various topoisomerase I genes in JN2-134 yeast strain were a kind gift of Dr. M-A. Bjornsti (Thomas Jefferson University, Philadelphia, Pa.). All bacterial and yeast media were from Difco (Detroit, Mich.), while cell culture media were purchased from Gibco-BRL (Gaithersburg, Md.).
(§1) Cleavage assays for the recombinant topoisomerases I and calf thymus topoisomerases I and II were done as described (Liu et al., J. Biol. Chem. 258:15365-15370 (1983)). The plasmid YEpG DNA used for the cleavage assays was prepared and labeled at its 3'-end using the published procedures.

human topoisomerase I = target: T2, human topoisomerase I (Homo sapiens, UniProt P11387); experiment: Topo I-mediated DNA cleavage assay; assay type: biochemical
T2 construct: 15 amino acid fusion from pET-11a vector (N); made in house; host or cells: E. coli BL21(DE3)
T2 sequence (P11387 1-765): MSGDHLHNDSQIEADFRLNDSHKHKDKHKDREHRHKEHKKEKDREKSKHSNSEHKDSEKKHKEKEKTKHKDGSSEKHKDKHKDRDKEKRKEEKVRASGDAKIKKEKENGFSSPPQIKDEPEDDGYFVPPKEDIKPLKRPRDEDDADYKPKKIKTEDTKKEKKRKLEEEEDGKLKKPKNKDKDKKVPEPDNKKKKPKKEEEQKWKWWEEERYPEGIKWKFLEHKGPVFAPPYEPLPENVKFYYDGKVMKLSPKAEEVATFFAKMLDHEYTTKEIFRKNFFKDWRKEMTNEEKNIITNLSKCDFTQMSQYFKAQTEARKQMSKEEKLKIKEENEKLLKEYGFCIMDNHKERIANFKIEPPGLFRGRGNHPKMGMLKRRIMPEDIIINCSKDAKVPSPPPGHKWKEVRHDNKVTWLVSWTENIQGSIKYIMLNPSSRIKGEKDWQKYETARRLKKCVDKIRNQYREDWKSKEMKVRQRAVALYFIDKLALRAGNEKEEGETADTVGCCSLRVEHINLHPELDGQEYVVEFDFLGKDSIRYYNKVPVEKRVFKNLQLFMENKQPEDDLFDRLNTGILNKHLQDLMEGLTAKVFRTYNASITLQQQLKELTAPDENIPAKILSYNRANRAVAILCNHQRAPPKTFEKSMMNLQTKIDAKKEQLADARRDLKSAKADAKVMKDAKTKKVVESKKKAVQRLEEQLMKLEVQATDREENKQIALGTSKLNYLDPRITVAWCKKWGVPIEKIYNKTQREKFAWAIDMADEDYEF
Excerpt: To obtain large quantity of human topoisomerase I, the human topoisomerase I cDNA was cloned into the pET-11a vector, in which transcription of the cDNA is under the control of the inducible T7 promoter (Studier et al., Methods in Enzymol., Vol. 185:60-89, San Diego: Academic Press (1990)). Briefly, a 3.4 kb DNA fragment containing the entire coding sequence of human topoisomerase I and approximately 1 kb of untranslated region downstream of the stop codon was isolated from the plasmid YCpGAL1-hTOP1 (Bjornsti et al., Cancer Res. 49:6318-6323 (1989)) by cutting at the BamHI and EcoRI sites. The vector pET-11a was cut with the same restriction enzymes, dephosphorylated and ligated to the insert in the proper reading frame downstream of the vector cloning site. […] Since the translational start in pET is positioned at an upstream NdeI site, the expressed topoisomerase I has a 15 amino acid fusion at its N-terminus. pET1B was then transformed into E. coli BL21 (DE3), and, upon induction with 0.4 mM IPTG for 1 hour, the bacterial lysate was analyzed by 10% SDS-PAGE. […] Briefly, E. coli cells were lysed by repeated sonic bursts. The sonic extract was made in 1 M NaCl and 6% polyethylene glycol (PEG) to remove nucleic acids. The PEG supernatant was chromatographed directly on a hydroxyapatite column. […] The eluted enzyme was dialyzed against 50% glycerol, 30 mM potassium phosphate (pH 7.0), 1 mM dithiothreitol (DTT) and 0.1 mM EDTA and stored at -20° C.
as §1

[2] = test system: camptothecin-resistant CPT-K5 cells; experiment: MTT-microtiter plate tetrazolinium cytotoxicity assay (MTA), CPT-K5; assay type: cell-based, human
Protocol: (§2) The IC50 of the drugs tested were determined by the MTT-microtiter plate tetrazolinium cytotoxicity assay (MTA) (Mosmann, T., J. Immunol. Methods 65:55-63 (1983); Denizot et al., J. Immunol. Methods 89:271-277 (1986)). Human lymphoblast RPMI 8402 cells and their camptothecin-resistant CPT-K5 cells (Andoh et al., Proc. Natl. Acad. Sci., USA 84:5565-5569 (1987)) were kindly provided by Dr. Toshiwo Andoh (Aichi Cancer Center Research Institute, Nagoya, Japan). The cell lines A2780 and its camptothecin-resistant derivative CPT-2000 were a generous gift of Dr. Jaulang Hwang (Institute of Molecular Biology, Academia sinica, Taiwan). Cells (2000 cells/well, seeded in […] growth medium) were grown in suspension at 37° C. in 5% CO2 and maintained by regular passage in RPMI medium supplemented with 10% heat inactivated fetal bovine serum, L-glutamine (2 mM), penicillin (100 U/mi), and streptomycin (0.1 mg/ml). The cells were exposed continuously for 4 days to drug concentrations ranging from 100 ug/ml to 1.0 ng/ml in ten fold dilutions, and assayed at the end of the fourth day. Each concentration and the no drug control were repeated at least twice in 6 replica wells. The results were plotted and the IC50 then measured. The drug sensitive human epidermoid carcinoma KB 3-1 cell line and its vinblastine-selected multidrug-resistant variant KB-V1 cells (Akiyama et al., Genetics 11:117-126 (1985)) were kindly provided by Dr. Michael Gottesmann (National Cancer Institute). They were grown as monolayer cultures at 37° C. in 5% CO2 and maintained by regular passage in Dulbecco's minimal essential medium supplemented with 10% heat inactivated fetal bovine serum. KB-V1 cells were maintained in the presence of […] vinblastine.

[3] = test system: Human lymphoblast RPMI 8402 cells; experiment: MTT-microtiter plate tetrazolinium cytotoxicity assay (MTA), RPMI 8402; assay type: cell-based
Protocol: as §2

[4] = concentration relative to camptothecin (CPT = 1) producing the same cleavage on plasmid DNA in the presence of human topoisomerase I
[5] = Homo sapiens, CPT-K5, 96 h, read-out: Cytotoxicity IC50, CPT-K5
[6] = Homo sapiens, RPMI 8402, 96 h, read-out: Cytotoxicity IC50, RPMI

T1 sequence (F1MDU7 1-1532): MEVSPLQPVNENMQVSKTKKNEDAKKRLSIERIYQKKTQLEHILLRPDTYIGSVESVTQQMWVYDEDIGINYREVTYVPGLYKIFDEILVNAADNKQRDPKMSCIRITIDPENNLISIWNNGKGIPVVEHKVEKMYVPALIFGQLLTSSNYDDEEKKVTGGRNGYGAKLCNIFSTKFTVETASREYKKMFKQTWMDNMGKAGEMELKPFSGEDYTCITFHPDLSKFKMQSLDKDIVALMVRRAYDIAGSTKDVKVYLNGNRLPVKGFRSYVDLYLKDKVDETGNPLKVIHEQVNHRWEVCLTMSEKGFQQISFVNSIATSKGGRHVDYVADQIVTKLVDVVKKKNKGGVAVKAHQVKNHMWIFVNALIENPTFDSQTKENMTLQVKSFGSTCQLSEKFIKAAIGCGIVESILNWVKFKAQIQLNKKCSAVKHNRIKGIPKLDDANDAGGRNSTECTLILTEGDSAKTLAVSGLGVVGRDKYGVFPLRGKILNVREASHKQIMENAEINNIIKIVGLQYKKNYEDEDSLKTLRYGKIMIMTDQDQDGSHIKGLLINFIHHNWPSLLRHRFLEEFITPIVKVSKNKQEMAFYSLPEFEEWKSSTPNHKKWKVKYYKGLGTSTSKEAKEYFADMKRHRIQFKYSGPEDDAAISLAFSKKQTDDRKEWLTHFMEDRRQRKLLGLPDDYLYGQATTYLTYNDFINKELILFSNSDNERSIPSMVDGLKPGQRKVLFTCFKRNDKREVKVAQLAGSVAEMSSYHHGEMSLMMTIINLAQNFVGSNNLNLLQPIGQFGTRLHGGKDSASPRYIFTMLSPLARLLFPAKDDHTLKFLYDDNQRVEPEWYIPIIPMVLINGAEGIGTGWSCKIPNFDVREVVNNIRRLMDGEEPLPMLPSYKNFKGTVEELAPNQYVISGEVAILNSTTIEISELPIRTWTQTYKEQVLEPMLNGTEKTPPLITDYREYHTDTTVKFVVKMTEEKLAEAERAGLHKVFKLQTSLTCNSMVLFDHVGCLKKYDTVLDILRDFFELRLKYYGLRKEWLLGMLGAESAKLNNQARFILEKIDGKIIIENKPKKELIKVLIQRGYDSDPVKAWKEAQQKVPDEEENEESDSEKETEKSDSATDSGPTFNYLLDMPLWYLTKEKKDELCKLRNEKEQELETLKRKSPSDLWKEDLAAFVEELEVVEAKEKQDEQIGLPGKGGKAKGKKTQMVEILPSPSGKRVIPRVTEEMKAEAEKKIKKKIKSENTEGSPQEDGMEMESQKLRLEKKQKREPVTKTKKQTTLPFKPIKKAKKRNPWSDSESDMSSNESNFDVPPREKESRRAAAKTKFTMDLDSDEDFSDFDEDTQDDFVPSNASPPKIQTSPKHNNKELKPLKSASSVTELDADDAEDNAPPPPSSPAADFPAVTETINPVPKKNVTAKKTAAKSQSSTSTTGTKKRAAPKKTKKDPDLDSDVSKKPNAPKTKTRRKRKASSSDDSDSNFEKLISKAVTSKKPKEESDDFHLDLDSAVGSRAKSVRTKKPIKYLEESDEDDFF

| Topo II-mediated DNA cleavage (REC, Relative Effective Concentration) [1] | Topo I-mediated DNA cleavage (REC, Relative Effective Concentration) (human topoisomerase I; [4]) | Compound | IC50 [2, 5] | IC50 [3, 6] | topoisomerase I poisoning (in words) (human topoisomerase I; summary statement) | Topo I-mediated DNA cleavage (REC, Relative Effective Concentration) (human topoisomerase I) | IC50 ([2]; cpt-k5 cells, 96 h) | IC50 ([3]; rpmi 8402 cells, 96 h) |
| --- | --- | --- | --- | --- | --- | --- | --- | --- |
| > 1000 | > 1000 | COc1cc2c(cc1OC)-c1nc3cc(OC)c(OC)cc3c(C)c1CC2 [Compound 6, 2,3,9,10-Tetramethoxy-7-methyl-5,6-dihydrobenz[c]acridine] | > 137 µM | > 137 µM |  |  |  |  |
| > 1000 | > 1000 | COc1cc2ccc3c(C)c4cc(OC)c(OC)cc4nc3c2cc1OC [Compound 7, 2,3,9,10-Tetramethoxy-7-methylbenz[c]acridine] | 5.5 µM | 7 µM |  |  |  |  |
| > 1000 | > 1000 | COc1cc2c(cc1OC)-c1c(c(C)c3cc(OC)c(OC)cc3[n+]1C)CC2 [Compound 8, 2,3,9,10-Tetramethoxy-7,1 2-dimethyl-5,6-dihydrobenz[c]acridinium methosulfate] | 12.2 µM | 6.1 µM |  |  |  |  |
| > 1000 | > 1000 | COc1cc2ccc3c(C)c4cc(OC)c(OC)cc4[n+](C)c3c2cc1OC [Compound 9, 2,3,9,10-Tetramethoxy-7,1 2-dimethylbenz [c]acridinium methosulfate] | 1.2 µM | 1.2 µM |  |  |  |  |
| > 1000 | 100 | COc1cc2c(cc1OC)-c1cc3cc(OC)c(OC)cc3nc1CC2 [Compound 13a, 2,3,9,10-Tetramethoxy-5,6-dihydrobenz[a]acridine] | 7.1 µM | 7.1 µM |  |  |  |  |
| > 1000 | 100 | COc1cc2c(cc1OC)-c1cc3cc4c(cc3nc1CC2)OCO4 [Compound 13b, 2,3,-Dimethoxy-9,10-methylenedioxy-5,6-dihydrobenz[a]acridine] | 14.9 µM | 9 µM |  |  |  |  |
| > 1000 | 1000 | COc1cc2cc3c(nc2cc1OC)CCc1ccccc1-3 [Compound 13c, 9,10-Dimethoxy-5,6-dihydrobenz[a]acridine] | 6.9 µM | 6.9 µM |  |  |  |  |
| > 1000 | 100 | COc1cc2c(cc1OC)-c1cc3ccccc3nc1CC2 [Compound 13d, 2,3-Dimethoxy-5,6-dihydrobenz[a]acridine] | 8.6 µM | 1 µM |  |  |  |  |
| > 1000 | 1.0 | COc1cc2cc3c(nc2cc1OC)CCc1c-3ccc2c1OCO2 [Compound 13e, 5,6-Dihydro-9,10-dimethoxy-3,4-methylenedioxybenz[a]acridine] | 22.4 µM | 3 µM | potent topoisomerase I poisions |  |  |  |
| > 1000 | 100 | COc1cc2cc3c(nc2cc1OC)CCc1c-3ccc(OC)c1OC [Compound 13f, 5,6-Dihydro-3,4,9,10-tetramethoxybenz[a]acridine] | 14.2 µM | 14.2 µM |  |  |  |  |
| > 1000 | 1.0 | Oc1cc2c(cc1O)-c1cc3cc(O)c(O)cc3nc1CC2 [Compound 13g, 2,3,9,10-tetrahydroxy-5,6-dihydrobenz[a]acridine] | 13.6 µM | 20.3 µM |  |  |  |  |
| > 1000 | 10 | COc1cc2cc3c(nc2cc1OC)CCc1cc(Cl)ccc1-3 [Compound 13j, 3-Chloro-9,10-dimethoxy-5,6-dihydrobenz[a]acridine] | 15.4 µM | 9.2 µM |  |  |  |  |
| > 1000 | 1000 | COc1cc2cc3c(ccc4cc(OC)c(OC)cc43)nc2cc1OC [Compound 14a, 2,3,9,10-Tetramethoxybenz[a]acridine] | 2.9 µM | 2.9 µM |  |  |  |  |
| > 1000 | 1000 | COc1cc2ccc3nc4cc5c(cc4cc3c2cc1OC)OCO5 [Compound 14b, 2,3,-Dimethoxy-9,10-methylenedioxybenz[a]acridine] | 7.5 µM | 4.5 µM |  |  |  |  |
|  |  | COc1cc(C2c3cc4c(cc3C(OC3OC5COC(c6cccs6)OC5C(O)C3O)C3COC(=O)C23)OCO4)cc(OC)c1O (stereo not shown) [VM-26, reference compound] | 0.5 µM | 0.3 µM |  | > 1000 |  |  |
|  | 0.1 | Methylenedioxy-dihydro-demethyl-coralyne [MDD-Coralyne, reference compound] |  |  |  |  | 27 µM | 8.1 µM |

| Compound | Topo II-mediated DNA cleavage (REC, Relative Effective Concentration) [1] | Topo I-mediated DNA cleavage (REC, Relative Effective Concentration) (human topoisomerase I; [4]) | IC50 [2, 5] | IC50 [3, 6] | topoisomerase I poisoning (in words) (human topoisomerase I; summary statement) | Topo I-mediated DNA cleavage (REC, Relative Effective Concentration) (human topoisomerase I) | IC50 ([2]; cpt-k5 cells, 96 h) | IC50 ([3]; rpmi 8402 cells, 96 h) |
| --- | --- | --- | --- | --- | --- | --- | --- | --- |
| CC[C@@]1(O)C(=O)OCc2c1cc1n(c2=O)Cc2cc3ccccc3nc2-1 [CPT, Camptothecin, reference compound] | > 1000 | 1 | > 10 µM | 0.004 µM |  |  |  |  |

Reference: patent publication US5981541A, “Substituted heterocycles as anti-tumor agents” (Rutgers, The State University of New Jersey, priority 1997, dated 1999)
